# Source: patent US20250082794A1, “ANTIMONY CHELATES FOR TARGETED AUGER THERAPY AND IMAGING DIAGNOSTICS” (Wisconsin Alumni Research Foundation, priority 2023, published 2025)
# Assay: SPECT and PET imaging biodistribution in mice
# Type: in vivo, BALB/c mice
# Procedure: For in vivo imaging and stability studies, ^117Sb was produced in 0.5 M NH4OAc at the University of Wisconsin-Madison and experiments were conducted the same day. 2 mL of ^117Sb in 0.5 M NH4OAc pH 4 solution was combined with 220 μL of 10 mM TRENCAM in 20% DMSO solution and heated to 80° C. for 1 h. Quantitative radiolabeling was confirmed via TLC. A 1:5 dilution of the radiolabeling solution with DI H2O was performed before passing it through a C8 Sep-Pak® cartridge (Waters, Milford, MA, USA), preconditioned with 5 mL EtOH and 5 mL H2O) to trap the [^117Sb]Sb-TRENCAM complex. The cartridge was rinsed with 1 mL H2O to remove NH4OAc buffer and unchelated ^117/119Sb, and then the [^117Sb]Sb-TRENCAM complex was eluted with EtOH and collected dropwise. […]
# Two groups of healthy 3-month-old male BALB/c mice (n=3) ([…]) were injected with 150 μL ^117Sb solutions. […] In both cases, scanner calibration occurred by imaging vials of ^117Sb activity and correlating image signal strength to activity measured via High Purity Germanium (HPGe) gamma spectroscopy. […] Using co-registered CT images, manual volume-of-interest delineation of tissues allowed activity biodistribution measurement, as expressed as percent injected activity per gram of tissue (% IA/g), using either Inveon Research Workstation (Siemens) for PET VOI analysis or Imalytics 3.0 (MILabs) for SPECT VOI analysis. […]
smiles,measurement,setting,value
[OH][Sb-]([OH])([OH])([OH])([OH])[OH] [[^117Sb]Sb(OH)6^−],uptake in bone (PET images),PET 150 min post injection,uptake
same,clearance route and organ uptake by PET and SPECT imaging,"tail vein injection, imaged 20-240 min post injection",renal clearance with liver accumulation
